Test results reported in paper PMC8217266 (Clinical Pharmacology and Therapeutics, 2021).

Assays:
[1] = tested on: triglycerides, LDL cholesterol, and total cholesterol, biomarkers of OCT1 activity; assay: UCSF EHR analysis: lipid levels in patients with HIV, on vs off drug; format: in vivo, human
human OCT2 [2] = target: T1, human OCT2 (Homo sapiens, UniProt O15244); assay: cell-based; settings: IC50 OCT2, experimental, mean ± SD; substrate metformin
T1 sequence (O15244 1-555): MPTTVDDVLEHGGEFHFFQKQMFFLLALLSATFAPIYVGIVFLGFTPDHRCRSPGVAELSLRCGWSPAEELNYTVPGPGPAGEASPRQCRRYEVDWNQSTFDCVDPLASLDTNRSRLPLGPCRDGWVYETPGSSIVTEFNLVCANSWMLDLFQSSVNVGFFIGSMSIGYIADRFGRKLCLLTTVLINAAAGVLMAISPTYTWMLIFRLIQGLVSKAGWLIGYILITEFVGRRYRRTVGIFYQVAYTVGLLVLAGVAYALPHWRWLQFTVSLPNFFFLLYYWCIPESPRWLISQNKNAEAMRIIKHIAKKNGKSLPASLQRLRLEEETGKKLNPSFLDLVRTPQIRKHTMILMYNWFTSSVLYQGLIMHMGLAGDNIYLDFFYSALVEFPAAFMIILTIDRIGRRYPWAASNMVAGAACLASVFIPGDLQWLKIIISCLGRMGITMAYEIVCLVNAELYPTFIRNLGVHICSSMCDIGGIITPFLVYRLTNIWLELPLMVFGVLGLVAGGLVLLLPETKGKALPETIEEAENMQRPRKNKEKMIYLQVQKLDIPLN

human OATP1B3 = target: T2, human OATP1B3 (Homo sapiens, UniProt Q9NPD5)
T2 sequence (Q9NPD5 1-702): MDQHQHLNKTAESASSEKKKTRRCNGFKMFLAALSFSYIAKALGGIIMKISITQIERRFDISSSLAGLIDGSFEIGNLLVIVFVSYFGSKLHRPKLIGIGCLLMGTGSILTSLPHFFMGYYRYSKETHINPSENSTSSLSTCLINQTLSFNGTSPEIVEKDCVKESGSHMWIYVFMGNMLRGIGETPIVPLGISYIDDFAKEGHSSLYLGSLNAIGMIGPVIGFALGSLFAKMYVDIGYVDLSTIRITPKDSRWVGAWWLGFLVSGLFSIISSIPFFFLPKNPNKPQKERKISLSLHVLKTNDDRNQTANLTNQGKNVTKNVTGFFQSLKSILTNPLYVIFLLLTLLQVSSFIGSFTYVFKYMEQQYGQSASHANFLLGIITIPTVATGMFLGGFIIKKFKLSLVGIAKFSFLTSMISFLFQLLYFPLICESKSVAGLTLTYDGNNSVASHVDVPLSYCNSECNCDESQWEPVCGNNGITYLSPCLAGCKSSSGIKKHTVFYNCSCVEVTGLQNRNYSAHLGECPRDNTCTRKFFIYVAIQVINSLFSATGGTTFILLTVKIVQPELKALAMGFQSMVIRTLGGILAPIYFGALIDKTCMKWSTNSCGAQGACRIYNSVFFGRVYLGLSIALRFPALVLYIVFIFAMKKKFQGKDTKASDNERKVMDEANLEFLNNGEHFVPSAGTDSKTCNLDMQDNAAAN

human OCT1 = target: T3, human OCT1 (Homo sapiens, UniProt O15245); settings: for Iu,in,max/IC50 OCT1: human
T3 sequence (O15245 1-554): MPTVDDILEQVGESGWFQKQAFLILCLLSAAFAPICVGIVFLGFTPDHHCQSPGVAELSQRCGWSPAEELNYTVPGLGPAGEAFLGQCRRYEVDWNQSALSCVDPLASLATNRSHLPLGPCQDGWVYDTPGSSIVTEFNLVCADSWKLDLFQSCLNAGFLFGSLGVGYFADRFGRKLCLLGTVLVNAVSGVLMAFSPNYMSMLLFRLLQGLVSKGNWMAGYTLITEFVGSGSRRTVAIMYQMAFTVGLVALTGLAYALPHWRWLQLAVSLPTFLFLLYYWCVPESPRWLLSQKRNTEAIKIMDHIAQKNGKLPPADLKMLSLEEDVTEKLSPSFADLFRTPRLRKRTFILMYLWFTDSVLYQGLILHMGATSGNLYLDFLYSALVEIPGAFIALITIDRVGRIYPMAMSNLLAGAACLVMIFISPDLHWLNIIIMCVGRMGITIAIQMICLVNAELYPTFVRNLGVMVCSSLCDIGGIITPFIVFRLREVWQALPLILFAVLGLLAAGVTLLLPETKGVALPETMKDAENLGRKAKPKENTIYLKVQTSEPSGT

human OCT2 [3] = target: T1, human OCT2
[4] = tested on: uric acid, a biomarker of BCRP activity; assay: UCSF EHR analysis: serum/plasma uric acid, on vs off drug; format: in vivo, human
human MATE2 = human MATE2 (Homo sapiens, UniProt Q86VL8)
Sequence of human MATE2 (Q86VL8 1-566 isoform Q86VL8-3): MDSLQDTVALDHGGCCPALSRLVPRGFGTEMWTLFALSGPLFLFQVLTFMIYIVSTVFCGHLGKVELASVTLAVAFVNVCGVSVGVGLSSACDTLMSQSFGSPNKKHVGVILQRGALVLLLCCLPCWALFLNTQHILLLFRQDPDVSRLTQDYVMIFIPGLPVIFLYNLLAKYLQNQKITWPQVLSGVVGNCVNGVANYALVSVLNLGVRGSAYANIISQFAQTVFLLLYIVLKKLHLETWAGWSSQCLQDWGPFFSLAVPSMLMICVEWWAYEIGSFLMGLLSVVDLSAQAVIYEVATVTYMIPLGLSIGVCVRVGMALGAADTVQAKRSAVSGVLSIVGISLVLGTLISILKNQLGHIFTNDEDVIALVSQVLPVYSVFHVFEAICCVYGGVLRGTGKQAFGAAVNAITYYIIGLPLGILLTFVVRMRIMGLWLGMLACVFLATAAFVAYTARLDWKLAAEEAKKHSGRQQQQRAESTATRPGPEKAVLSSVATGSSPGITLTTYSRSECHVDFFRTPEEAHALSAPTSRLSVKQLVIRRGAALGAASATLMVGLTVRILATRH

| Structure (SMILES) | LDL cholesterol, Median On drug ([1]; matched 1:2, off drug 95) | Total cholesterol, Median On drug ([1]; matched 1:2, off drug 166) | LDL cholesterol, Average On drug ([1]; matched 1:2, on n=357, off n=714, off drug 98.7, P 0.0077) | Total cholesterol, Average On drug ([1]; matched 1:2, on n=364, off n=728, off drug 170, P 5.18E-06) | Triglyceride, Average On drug ([1]; matched 1:2, on n=386, off n=772, off drug 160, P 0.00022) | IC50 (human OCT2 [2]) | Iu,in,max/IC50 OATP1B3 (human OATP1B3) | Iu,in,max/IC50 OCT1 (human OCT1) | Cu,max/IC50 OCT2 (human OCT2 [3]) | Median SUA On drug ([4]; criteria 1, off drug 5.7) | Median SUA On drug ([4]; criteria 2, off drug 5.6) | Median SUA On drug ([4]; main analysis, matched 1:5, off drug 5.7, P <2.2E-16) | Cu,max/IC50 MATE2-K (human MATE2) | OCT1 inhibited more potently relative to OCT2 (human OCT1) |
| --- | --- | --- | --- | --- | --- | --- | --- | --- | --- | --- | --- | --- | --- | --- |
| CC(C)CN(C[C@@H](O)[C@H](Cc1ccccc1)NC(=O)O[C@H]1CO[C@H]2OCC[C@H]21)S(=O)(=O)c1ccc(N)cc1 [Darunavir] | 100/95 mg/dL | 180/166 mg/dL | 105/98.7 mg/dL | 183/170 mg/dL | 180/160 mg/dL | – | – | – | – | – | – | – | – | – |
| N#CC[C@H](C1CCCC1)n1cc(-c2ncnc3[nH]ccc23)cn1 [Ruxolitinib] | – | – | – | – | – | 10.7 ± 3.7 µM | 0.008 | 0.02 | 0.003 | – | – | – | – | – |
| CCCc1nn(C)c2c(=O)[nH]c(-c3cc(S(=O)(=O)N4CCN(C)CC4)ccc3OCC)nc12 [Sildenafil] | – | – | – | – | – | 68 ± 20.1 µM | – | – | – | 6.7/5.7 mg/dL | 6.9/5.6 mg/dL | 6.6/5.7 mg/dL | 0.003 | – |
| CCOC(=O)c1c(CSc2ccccc2)n(C)c2cc(Br)c(O)c(CN(C)C)c12 [Umifenovir (Arbidol), Umifenovir] | – | – | – | – | – | 14.9 ± 4.9 µM | 0.73 | 3.93 | 0.006 | – | – | – | 0.02 | ≥ 10 fold |
